Results: the NIST ThermoML archive (doi:10.1016/j.jct.2019.02.026)
± gives the expanded uncertainty stated by the source.

Conditions: Liquid, Falling or rolling sphere viscometry

CCCCCCCCCCCC(=O)OC [methyl dodecanoate]
Conditions | viscosity [mPa·s]
302.7 K, 30290 kPa | 3.6 ± 0.11
302.94 K, 20178 kPa | 3.15 ± 0.1
303.04 K, 110 kPa | 2.53 ± 0.08
303.04 K, 10512 kPa | 2.85 ± 0.09
312.33 K, 30212 kPa | 2.87 ± 0.09
312.5 K, 20279 kPa | 2.59 ± 0.08
312.61 K, 10214 kPa | 2.33 ± 0.07
312.63 K, 134 kPa | 2.09 ± 0.07
331.07 K, 29762 kPa | 2.04 ± 0.06
331.34 K, 20420 kPa | 1.86 ± 0.06
331.51 K, 10354 kPa | 1.67 ± 0.05
331.66 K, 132 kPa | 1.51 ± 0.05
351.24 K, 29906 kPa | 1.53 ± 0.05
351.57 K, 20226 kPa | 1.37 ± 0.04
351.74 K, 10090 kPa | 1.25 ± 0.04
351.81 K, 235 kPa | 1.14 ± 0.04
361.57 K, 30100 kPa | 1.35 ± 0.04
361.6 K, 19931 kPa | 1.25 ± 0.04
361.75 K, 10141 kPa | 1.12 ± 0.04
362.23 K, 2921 kPa | 1.05 ± 0.03

CCCCCC(=O)OC [methyl hexanoate]
Conditions | viscosity [mPa·s]
292.99 K, 29973 kPa | 1.16 ± 0.04
293.48 K, 25055 kPa | 1.11 ± 0.04
293.98 K, 19999 kPa | 1.06 ± 0.03
294.34 K, 15024 kPa | 1.01 ± 0.03
294.63 K, 9980 kPa | 0.96 ± 0.03
294.75 K, 5079 kPa | 0.92 ± 0.03
294.86 K, 105 kPa | 0.87 ± 0.03
302.79 K, 29963 kPa | 1.01 ± 0.03
302.89 K, 24988 kPa | 0.97 ± 0.03
302.98 K, 19967 kPa | 0.93 ± 0.03
303.01 K, 15014 kPa | 0.89 ± 0.03
303.05 K, 10031 kPa | 0.86 ± 0.03
303.09 K, 5026 kPa | 0.81 ± 0.03
303.12 K, 107 kPa | 0.77 ± 0.02
312.57 K, 29951 kPa | 0.89 ± 0.03
312.62 K, 24986 kPa | 0.85 ± 0.03
312.69 K, 15010 kPa | 0.78 ± 0.02
312.69 K, 20046 kPa | 0.82 ± 0.03
312.7 K, 4988 kPa | 0.71 ± 0.02
312.71 K, 10033 kPa | 0.75 ± 0.02
312.74 K, 103 kPa | 0.68 ± 0.02
321.96 K, 29975 kPa | 0.8 ± 0.03
322.08 K, 9972 kPa | 0.67 ± 0.02
322.12 K, 19979 kPa | 0.74 ± 0.02
322.14 K, 24972 kPa | 0.77 ± 0.02
322.29 K, 98 kPa | 0.61 ± 0.02
322.29 K, 5048 kPa | 0.64 ± 0.02
322.32 K, 15008 kPa | 0.7 ± 0.02
331.74 K, 30010 kPa | 0.72 ± 0.02
331.8 K, 25008 kPa | 0.69 ± 0.02
331.83 K, 14994 kPa | 0.63 ± 0.02
331.89 K, 9984 kPa | 0.6 ± 0.02
331.93 K, 20001 kPa | 0.66 ± 0.02
341.38 K, 29965 kPa | 0.64 ± 0.02
341.39 K, 20015 kPa | 0.59 ± 0.02
341.41 K, 25042 kPa | 0.62 ± 0.02

CCCCCCCC(=O)OC [methyl octanoate]
Conditions | viscosity [mPa·s]
294.65 K, 30063 kPa | 1.81 ± 0.06
294.79 K, 25004 kPa | 1.73 ± 0.05
295.08 K, 19995 kPa | 1.65 ± 0.05
295.22 K, 14978 kPa | 1.58 ± 0.05
295.3 K, 10017 kPa | 1.5 ± 0.05
295.48 K, 5004 kPa | 1.43 ± 0.05
295.62 K, 102 kPa | 1.37 ± 0.04
303.06 K, 29942 kPa | 1.58 ± 0.05
303.1 K, 25013 kPa | 1.52 ± 0.05
303.11 K, 20009 kPa | 1.46 ± 0.05
303.13 K, 5014 kPa | 1.27 ± 0.04
303.13 K, 15018 kPa | 1.39 ± 0.04
303.14 K, 9987 kPa | 1.33 ± 0.04
303.16 K, 98 kPa | 1.21 ± 0.04
312.35 K, 29980 kPa | 1.37 ± 0.04
312.4 K, 25014 kPa | 1.32 ± 0.04
312.44 K, 10045 kPa | 1.15 ± 0.04
312.44 K, 20035 kPa | 1.27 ± 0.04
312.47 K, 15056 kPa | 1.21 ± 0.04
312.49 K, 5022 kPa | 1.1 ± 0.03
312.51 K, 101 kPa | 1.05 ± 0.03
321.71 K, 29998 kPa | 1.21 ± 0.04
321.89 K, 25073 kPa | 1.16 ± 0.04
321.97 K, 9991 kPa | 1.01 ± 0.03
322.02 K, 5045 kPa | 0.97 ± 0.03
322.06 K, 20031 kPa | 1.11 ± 0.04
322.09 K, 103 kPa | 0.92 ± 0.03
322.11 K, 14992 kPa | 1.06 ± 0.03
331.51 K, 29993 kPa | 1.08 ± 0.03
331.6 K, 25035 kPa | 1.04 ± 0.03
331.61 K, 20038 kPa | 1 ± 0.03
331.62 K, 5013 kPa | 0.86 ± 0.03
331.72 K, 15022 kPa | 0.95 ± 0.03
331.73 K, 10033 kPa | 0.91 ± 0.03
331.87 K, 108 kPa | 0.82 ± 0.03
341.44 K, 29966 kPa | 0.96 ± 0.03
341.56 K, 25026 kPa | 0.92 ± 0.03
341.61 K, 15013 kPa | 0.84 ± 0.03
341.62 K, 20045 kPa | 0.88 ± 0.03
341.63 K, 4984 kPa | 0.76 ± 0.02
341.64 K, 10011 kPa | 0.8 ± 0.03
341.66 K, 97 kPa | 0.72 ± 0.02
351.58 K, 103 kPa | 0.64 ± 0.02
351.6 K, 4996 kPa | 0.68 ± 0.02
351.62 K, 29959 kPa | 0.87 ± 0.03
351.64 K, 10072 kPa | 0.72 ± 0.02
351.65 K, 15006 kPa | 0.75 ± 0.02
351.7 K, 19996 kPa | 0.79 ± 0.03
351.78 K, 25021 kPa | 0.83 ± 0.03
361.2 K, 9990 kPa | 0.64 ± 0.02
361.23 K, 4990 kPa | 0.61 ± 0.02
361.41 K, 19980 kPa | 0.72 ± 0.02
361.44 K, 15037 kPa | 0.68 ± 0.02
361.45 K, 103 kPa | 0.58 ± 0.02
361.59 K, 25011 kPa | 0.74 ± 0.02
361.74 K, 29991 kPa | 0.78 ± 0.02
